Results on three molecules are retold here after patent US5002773A, “Transdermal delivery of (+) (2S,3S)-3-acetoxy-8-chloro-5-(2-dimethylaminoethyl)-2,3-dihydro-2-(4-met hoxyphenyl)-1,5-benzothiazepin-4-(5H)-one” (Marion Merrell Dow Inc., priority 1989, dated 1991).

The procedure of series [1]: The model used is an in-vitro excised hairless mouse skin model which is known in the art. The permeation rates of TA-3090 through the excised skin were measured using a Franz diffusion cell.
In-vitro evaluation of transdermal patches was accomplished using an excised hairless mouse/Franz diffusion cell model (available from Crown Glass Company, Somerville, N.J.) as follows. Immediately following sacrifice by cervical dislocation (or by CO2 gas), a portion (about 3.5 cm×3.5 cm) of the full-thickness abdominal skin was carefully excised from the hairless mouse (5-7 week old, male). The dermal side of the skin was carefully cleaned of any adhering subcutaneous tissue and/or blood vessels. […]
At a predetermined time interval (usually 4, 8, 12 and 24 hours), the entire volume of the receptor solution was withdrawn and immediately replaced with the same volume of the fresh, drug-free Trycol solution at 37° C. to maintain the sink condition. The concentration of TA-3090 in the sample was determined by a sensitive HPLC method. From the concentration profiles of TA-3090 in the receptor compartment, the flux (mcg/cm^2) of skin permeation was calculated using a computer program and then plotted as a function of time (hour). […]

The conditions of series [2]: once-a-day oral dose; background statement; cited from earlier work.
Series [3] has as its system calcium channel. Particulars: background statement; cited from earlier work.
Series [4] can be described thus: Aqueous solubility of TA-3090 free base with 5% PEG 20 Oleyl ether. Format: physicochemical. Particulars: with 5% PEG 20 Oleyl ether as solubilizer. The procedure: The aqueous solubility of TA-3090 free base was improved by the incorporation of 5% PEG 20 Oleyl ether as a solubilizer to maintain an effective sink condition required in the investigation, which simulates the biological sink achieved by hemoperfusion. […] Following this, the saline solution containing 5% w/w PEG 20 Oleyl ether (Trycol®) at 37° C. was introduced into the receptor compartment, which was thermostatically controlled at 37° C. by a circulating water bath.

Series [5] in a line: Solubility of TA-3090 in donor solution. It is filed as physicochemical. The settings on record: aqueous buffer, phosphate buffer, 37° C., mean and SD, n=3. The procedure: (§1) TA-3090 skin permeability was determined using a freshly excised hairless mouse skin and a side-by-side type of diffusion cell (available from Crown Glass Co., Somerville, N.J.). About 2.5 cm×2.5 cm portion of freshly excised hairless mouse skin (5-7 week old, male), prepared as described in Example 4, was mounted between the two chambers of the side-by-side diffusion cell and securely clamped. Saturated solution (with some extra drug in suspension state) of TA-3090 free base in phosphate buffer solution maintained at a particular pH was introduced into the donor side (the side facing the stratum corneum). 5% Trycol® solution in normal saline, prepared as described in Example 4, was introduced in the receptor compartment (the side facing the dermis side of the skin). Both donor and receptor compartments were maintained at 37° C. by a thermostatically controlled circulating water bath. At predetermined time intervals (usually at 3, 6, 12 and 24 hours) the entire volume of the receptor solution was withdrawn and immediately replaced with the same volume of the fresh, drug-free Trycol® solution at 37° C. to maintain the sink condition. […] From the concentration profiles of TA-3090 in the receptor compartment, the flux (mcg/cm^2) of skin permeation was calculated using a computer program and then plotted as a function of time (hour). Slope of this line gave the value of skin permeation rate (mcg/cm^2 /hr).

Series [6] is described as follows: Intrinsic in-vitro skin permeability of TA-3090 at various pH conditions (side-by-side diffusion cell). Format: in vitro ADME, hairless mouse. The settings on record: for Papp: mouse, skin permeation rate/solubility, mean and SD, n=3. The procedure:
as §1

Series [7] can be described thus: in vivo. The settings on record: guinea pig, plasma, topical or ocular.
Series [8] in a line: Intrinsic in-vitro skin permeability of diltiazem (side-by-side diffusion cell). It is filed as in vitro ADME, hairless mouse. The settings on record: skin permeation rate/solubility, mean and SD, n=3. The procedure:
About 2.5 cm×2.5 cm portion of freshly excised hairless mouse skin (5-7 week old, male) prepared as described in Example 4 above, was mounted between the two chambers of the side-by-side diffusion cell and securely clamped. […] 5% Trycol® solution in normal saline, prepared as described in Example 4 above, was introduced into the receptor compartment (the side facing the dermis side of the skin). Both donor and receptor compartments were maintained at 37° C. by a thermostatically controlled circulating water bath. At predetermined time intervals (usually at 3, 6, 12 and 24 hours) the entire volume of the receptor solution was withdrawn and immediately replaced with the same volume of fresh, drug-free Trycol® solution at 37° C. to maintain the […]. […] Slope of this line gave the value of skin permeation rate (mcg/cm^2 /hr).

The conditions of series [9]: literature statement; cited from earlier work.

≈ marks a conversion by molar mass, not a printed value. Where a name gives a salt, the structure may show the parent alone.

Broadly, the solubility is the concentration that dissolves in the medium under given conditions. High values mean much dissolved substance, low ones little dissolved substance. As usually defined, the Papp is a coefficient for how fast a substance crosses the barrier. Regarding `COc1ccc([C@@H]2Sc3cc(Cl)ccc3N(CCN(C)C)C(=O)[C@@H]2OC(C)=O)cc1` [TA-3090, (+)(2S,3S)-3-acetoxy-8-chloro-5-(2-dimethylaminoethyl)-2,3-dihydro-2-(4-methoxyphenyl)-1,5-benzothiazepin-4-(5H)-one], the “rate of administration from the transdermal delivery device” value in [1] lay in the range of 0.6 to 29.62 mcg/cm^2 /hr. Moreover, the oral absorption entry in series [2] is on record as “incomplete oral absorption”. The vasodilating activity result in [3] is recorded as “potent vasodilating activity”. Moreover, in [4], the aqueous solubility entry is on record as “improved”. Further, the solubility in [5] (donor side pH 5) was found to be 7730 ± 1130 µg/mL (≈ 17200 µM); in [5] (donor side pH 7) it was 600 ± 20 µg/mL (≈ 1340 µM); in series [5] (donor side pH 9) it was 60 ± 4 µg/mL (≈ 134 µM). The Papp in [6] (donor side pH 5) was 1.81 ×10⁻⁶ cm/s; in [6] (donor side pH 7), 13.4 ×10⁻⁶ cm/s; in [6] (donor side pH 9), 30.6 ×10⁻⁶ cm/s. In addition, the “Skin Permeation Rate” value is recorded as 49.04 ± 8.76 mcg/cm^2 /hr in series [6] (pH 5), 29.39 ± 11.61 mcg/cm^2 /hr in [6] (pH 7) and 6.75 ± 1.54 mcg/cm^2 /hr in series [6] (pH 9). In [7], this molecule came in with a concentration at 4 h of 11.4 ± 4.09 ng/mL. In series [7], this molecule returned a concentration at 8 h of 32.5 ± 4.56 ng/mL. Moreover, the concentration at 24 h in [7] amounted to 75.6 ng/mL. For the same molecule, in [7], the concentration at 48 h is 71.1 ± 43.1 ng/mL.
Regarding `COc1ccc([C@@H]2Sc3ccccc3N(CCN(C)C)C(=O)[C@@H]2OC(C)=O)cc1` [diltiazem HCl, diltiazem hydrochloride], the “Intrinsic Permeability” value in series [8] (hydrochloride) is given as 1.66 ± 0.43 (cm/hr) × 10^-5. Moreover, the “permeability through skin / percutaneous absorption” value in series [9] was “poor percutaneous absorption”.
As to `COc1ccc([C@@H]2Sc3ccccc3N(CCN(C)C)C(=O)[C@@H]2OC(C)=O)cc1` [diltiazem free base, diltiazem], the “Intrinsic Permeability” value in [8] was 186.96 ± 49.74 (cm/hr) × 10^-5.
